Holding throughout (experiment): level (log10 ratio to DMSO vehicle control); higher = higher biomarker level / cell amount than vehicle control
Common to all, as to conditions: in DMSO

Compound in one test: CCCCCCCCC(F)(F)C(F)(F)C(F)(F)C(F)(F)C(F)(F)C(F)(F)F [1-(Perfluorohexyl)octane]
On the procedure:
(§1)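 BioMAP Diversity Plus panel of 12 human primary cell co-culture systems (3C, 4H, LPS, SAg, BT, BF4T, BE3C, CASM3C, HDF3CGF, KF3CT, MyoF, Mphg). Compounds were added 1 h before stimulation and left for 24 h (MyoF 48 h; BT 72 h for soluble read-outs or 6 d for IgG). Biomarkers were read by ELISA, cytotoxicity by SRB, PBMC viability and proliferation by Alamar Blue. Each well value was divided by the mean of 8 DMSO control wells on the same plate and log10 transformed; duplicate blinded samples were tested at 4 concentrations.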

Compound in test [1]: CNS(=O)(=O)C(F)(F)C(F)(F)C(F)(F)C(F)(F)C(F)(F)C(F)(F)C(F)(F)C(F)(F)F [N-Methylperfluorooctanesulfonamide]
On the procedure: as §1

Compound in test [2]: O=C(O)C(F)(F)C(F)(F)C(F)(F)C(F)(F)C(F)(F)C(F)(F)C(F)(F)C(F)(F)C(F)(F)C(F)(F)C(F)(F)C(F)(F)C(F)(F)F [Perfluorotetradecanoic acid]
On the procedure: as §1

Compound in test [3]: O=C(O)C(F)(F)C(F)(F)C(F)(F)C(F)(F)C(F)(F)C(F)(F)C(F)(F)C(F)(F)C(F)(F)C(F)(F)C(F)(F)C(F)(F)F [Perfluorotridecanoic acid]
On the procedure:
as §1

Compound in the next test: O=C(O)C(F)(F)C(F)(F)C(F)(F)C(F)(F)C(F)(F)F [Perfluorohexanoic acid]
The procedure: as §1

Compound in test [4]: O=C(O)C(F)(F)OC(F)(F)C(F)(F)OC(F)(F)C(F)(F)C(F)(F)C(F)(F)F [Perfluoro-3,6-dioxadecanoic acid]
On the procedure:
as §1

Compound in test [5]: O=C(O)CCC(F)(F)C(F)(F)C(F)(F)C(F)(F)C(F)(F)F [2H,2H,3H,3H-Perfluorooctanoic acid]
On the procedure: as §1

± gives the standard deviation of the averaged measurements.

For SAg:CD38, the “level (log10)” value with 1-(Perfluorohexyl)octane (6700 nM) was 0.0015 ± 0.0078; with 1-(Perfluorohexyl)octane (20000 nM) it was 0.0105 ± 0.00071; in test [1] (6700 nM), -0.012 ± 0.0085; in test [1] (20000 nM), -0.0255 ± 0.012; in test [1] (60000 nM), -0.0515 ± 0.0064; in test [2] (6700 nM) it was -0.0205 ± 0.03. Moreover, the “level (log10)” value is -0.018 ± 0.016 in test [2] (20000 nM); -0.017 ± 0.014 in test [3] (1500 nM); -0.037 ± 0.02 in test [3] (4400 nM); -0.0245 ± 0.018 in test [3] (13000 nM); -0.027 ± 0.0028 in test [3] (40000 nM); 0.003 ± 0.023 with Perfluorohexanoic acid (6700 nM). Besides, the “level (log10)” value in the test with Perfluorohexanoic acid (20000 nM) is -0.004 ± 0.0014; with Perfluorohexanoic acid (60000 nM), -0.0005 ± 0.025; in test [4] (6700 nM), -0.0115 ± 0.0021; in test [4] (20000 nM) it was -0.021 ± 0.0057; in test [4] (60000 nM) it was -0.061 ± 0.069; in test [5] (6700 nM), -0.0215 ± 0.037. Moreover, the “level (log10)” value in test [5] (20000 nM) was -0.024 ± 0.041; in test [5] (60000 nM), -0.0595 ± 0.03.
For the test system BT:sIL-2, the “level (log10)” value with 1-(Perfluorohexyl)octane (6700 nM) is -0.024 ± 0.073; with 1-(Perfluorohexyl)octane (20000 nM), 0.0635 ± 0.067; in test [1] (6700 nM), -0.0385 ± 0.073; in test [1] (20000 nM), -0.0105 ± 0.032; in test [1] (60000 nM), 0.0385 ± 0.083; in test [2] (6700 nM), 0.0535 ± 0.011. The “level (log10)” value is 0.0415 ± 0.069 in test [2] (20000 nM); 0.064 in test [3] (1500 nM); 0.061 ± 0.0042 in test [3] (4400 nM); 0.0925 ± 0.022 in test [3] (13000 nM); 0.093 ± 0.14 in test [3] (40000 nM); -0.0225 ± 0.0064 in the test with Perfluorohexanoic acid (6700 nM). In addition, the “level (log10)” value in the test with Perfluorohexanoic acid (20000 nM) is 0.0345 ± 0.098; in the test with Perfluorohexanoic acid (60000 nM), 0.0275 ± 0.074; in test [4] (6700 nM), 0.0465 ± 0.036; in test [4] (20000 nM), 0.0285 ± 0.16; in test [4] (60000 nM) it was -0.011 ± 0.095; in test [5] (6700 nM), -0.0225 ± 0.036. For the same test system, the figures for the “level (log10)” value in test [5] (20000 nM) and in test [5] (60000 nM) were 0.0065 ± 0.044 and -0.05 ± 0.072, respectively.
SAg:SRB: the “level (log10)” value with 1-(Perfluorohexyl)octane (6700 nM) is 0.0035 ± 0.0078; in the test with 1-(Perfluorohexyl)octane (20000 nM), -0.004 ± 0.018; in test [1] (6700 nM), -0.0095 ± 0.022; in test [1] (20000 nM), -0.021 ± 0.02; in test [1] (60000 nM), -0.0685 ± 0.036; in test [2] (6700 nM), -0.0025 ± 0.013. Also, the “level (log10)” value in test [2] (20000 nM) was -0.008 ± 0.024; in test [3] (1500 nM), -0.0015 ± 0.011; in test [3] (4400 nM), -0.0095 ± 0.0035; in test [3] (13000 nM), -0.0045 ± 0.012; in test [3] (40000 nM) it was -0.0335 ± 0.026; with Perfluorohexanoic acid (6700 nM), -0.0055 ± 0.0035. Also, the “level (log10)” value in the test with Perfluorohexanoic acid (20000 nM) is -0.0135 ± 0.0035; in the test with Perfluorohexanoic acid (60000 nM), -0.001 ± 0.0028; in test [4] (6700 nM), -0.016 ± 0.0014; in test [4] (20000 nM), -0.0085 ± 0.021; in test [4] (60000 nM) it was -0.0855 ± 0.037; in test [5] (6700 nM) it was -0.0065 ± 0.00071. The “level (log10)” value in test [5] (20000 nM) was -0.0095 ± 0.0035; in test [5] (60000 nM), -0.0025 ± 0.013.
On to BF4T:tPA, for which the “level (log10)” value was 0.0075 ± 0.013 with 1-(Perfluorohexyl)octane (6700 nM); 0.026 ± 0.0057 with 1-(Perfluorohexyl)octane (20000 nM); 0.0145 ± 0.011 in test [1] (6700 nM); 0.0325 ± 0.03 in test [1] (20000 nM); 0.0515 ± 0.019 in test [1] (60000 nM); -0.0015 ± 0.019 in test [2] (6700 nM). Besides, the “level (log10)” value in test [2] (20000 nM) is 0.0015 ± 0.049; in test [3] (1500 nM), 0.025 ± 0.05; in test [3] (4400 nM) it was -0.009 ± 0.017; in test [3] (13000 nM), -0.0045 ± 0.015; in test [3] (40000 nM), -0.0085 ± 0.018; in the test with Perfluorohexanoic acid (6700 nM), -0.0045 ± 0.0064. Besides, the “level (log10)” value in the test with Perfluorohexanoic acid (20000 nM) is -0.0035 ± 0.019; in the test with Perfluorohexanoic acid (60000 nM) it was 0.0055 ± 0.013; in test [4] (6700 nM), -0.051 ± 0.0014; in test [4] (20000 nM) it was -0.0565 ± 0.026; in test [4] (60000 nM), 0.0105 ± 0.05; in test [5] (6700 nM) it was -0.014 ± 0.0014. Further, the “level (log10)” value in test [5] (20000 nM) was -0.023 ± 0.0085; in test [5] (60000 nM), -0.0535 ± 0.042.
Consider 3C:CD87/uPAR, for which the “level (log10)” value in the test with 1-(Perfluorohexyl)octane (6700 nM) was -0.0145 ± 0.013; with 1-(Perfluorohexyl)octane (20000 nM) it was -0.0075 ± 0.019; in test [1] (6700 nM), -0.0125 ± 0.059; in test [1] (20000 nM), -0.052 ± 0.011; in test [1] (60000 nM), -0.0055 ± 0.032; in test [2] (6700 nM), 0.032 ± 0.081. The “level (log10)” value was 0.0405 ± 0.073 in test [2] (20000 nM); 0.065 ± 0.025 in test [3] (1500 nM); 0.0355 ± 0.039 in test [3] (4400 nM); 0.066 ± 0.011 in test [3] (13000 nM); 0.059 ± 0.016 in test [3] (40000 nM); -0.0065 ± 0.0035 in the test with Perfluorohexanoic acid (6700 nM). Further, the “level (log10)” value in the test with Perfluorohexanoic acid (20000 nM) was -0.0115 ± 0.00071; with Perfluorohexanoic acid (60000 nM), -0.01 ± 0.0099; in test [4] (6700 nM), 0.0065 ± 0.013; in test [4] (20000 nM) it was -0.0145 ± 0.011; in test [4] (60000 nM), -0.083 ± 0.058; in test [5] (6700 nM), -0.0155 ± 0.043. For the same test system, the entries for the “level (log10)” value in test [5] (20000 nM) and in test [5] (60000 nM) were -0.0055 ± 0.016 and -0.021 ± 0.023, respectively.
Consider BF4T:uPA, for which the “level (log10)” value was -0.0105 ± 0.0035 in the test with 1-(Perfluorohexyl)octane (6700 nM); -0.0125 ± 0.00071 with 1-(Perfluorohexyl)octane (20000 nM); 0.0055 ± 0.0064 in test [1] (6700 nM); 0.01 ± 0.014 in test [1] (20000 nM); 0.0385 ± 0.028 in test [1] (60000 nM); 0.0075 ± 0.0078 in test [2] (6700 nM). In addition, the “level (log10)” value in test [2] (20000 nM) was 0.017 ± 0.0028; in test [3] (1500 nM) it was 0.0185 ± 0.018; in test [3] (4400 nM) it was 0.011 ± 0.0042; in test [3] (13000 nM) it was 0.0095 ± 0.0021; in test [3] (40000 nM) it was 0.0155 ± 0.005; with Perfluorohexanoic acid (6700 nM), 0.01 ± 0.0028. Moreover, the “level (log10)” value is 0.004 in the test with Perfluorohexanoic acid (20000 nM); 0.0105 ± 0.0078 with Perfluorohexanoic acid (60000 nM); 0.0105 ± 0.005 in test [4] (6700 nM); 0.008 ± 0.013 in test [4] (20000 nM); 0.025 ± 0.031 in test [4] (60000 nM); 0.0015 ± 0.015 in test [5] (6700 nM). For the same test system, the “level (log10)” value is -0.003 ± 0.03 in test [5] (20000 nM) and -0.008 ± 0.013 in test [5] (60000 nM).
In the case of BF4T:MMP-3, the “level (log10)” value with 1-(Perfluorohexyl)octane (6700 nM) is 0.005 ± 0.0057; in the test with 1-(Perfluorohexyl)octane (20000 nM) it was -0.0135 ± 0.016; in test [1] (6700 nM), 0.0015 ± 0.046; in test [1] (20000 nM), 0.012 ± 0.052; in test [1] (60000 nM) it was 0.044 ± 0.064; in test [2] (6700 nM), 0.027 ± 0.04. For the same test system, the “level (log10)” value in test [2] (20000 nM) is 0.0475 ± 0.066; in test [3] (1500 nM), 0.042 ± 0.054; in test [3] (4400 nM), -0.0155 ± 0.061; in test [3] (13000 nM), 0.0115 ± 0.032; in test [3] (40000 nM), 0.0155 ± 0.012; with Perfluorohexanoic acid (6700 nM), 0.003 ± 0.024. The “level (log10)” value is -0.0095 ± 0.00071 with Perfluorohexanoic acid (20000 nM); 0.0295 ± 0.043 in the test with Perfluorohexanoic acid (60000 nM); 0.008 ± 0.0057 in test [4] (6700 nM); 0.11 ± 0.015 in test [4] (20000 nM); 0.161 ± 0.037 in test [4] (60000 nM); -0.0015 ± 0.019 in test [5] (6700 nM). Besides, the “level (log10)” value in test [5] (20000 nM) came to 0.0025 ± 0.0035; in test [5] (60000 nM), 0.0235 ± 0.066.

These data come from the supplement of paper PMC10331698.
